The values that follow come from patent publication US8729088B2, “Toll-like receptor modulators and treatment of diseases” (The Regents of the University of California, priority 2009, dated 2014).

Assay [1] deals with T1, TLR7 (Mus musculus, UniProt P58681).
T1 sequence (P58681 27-1050): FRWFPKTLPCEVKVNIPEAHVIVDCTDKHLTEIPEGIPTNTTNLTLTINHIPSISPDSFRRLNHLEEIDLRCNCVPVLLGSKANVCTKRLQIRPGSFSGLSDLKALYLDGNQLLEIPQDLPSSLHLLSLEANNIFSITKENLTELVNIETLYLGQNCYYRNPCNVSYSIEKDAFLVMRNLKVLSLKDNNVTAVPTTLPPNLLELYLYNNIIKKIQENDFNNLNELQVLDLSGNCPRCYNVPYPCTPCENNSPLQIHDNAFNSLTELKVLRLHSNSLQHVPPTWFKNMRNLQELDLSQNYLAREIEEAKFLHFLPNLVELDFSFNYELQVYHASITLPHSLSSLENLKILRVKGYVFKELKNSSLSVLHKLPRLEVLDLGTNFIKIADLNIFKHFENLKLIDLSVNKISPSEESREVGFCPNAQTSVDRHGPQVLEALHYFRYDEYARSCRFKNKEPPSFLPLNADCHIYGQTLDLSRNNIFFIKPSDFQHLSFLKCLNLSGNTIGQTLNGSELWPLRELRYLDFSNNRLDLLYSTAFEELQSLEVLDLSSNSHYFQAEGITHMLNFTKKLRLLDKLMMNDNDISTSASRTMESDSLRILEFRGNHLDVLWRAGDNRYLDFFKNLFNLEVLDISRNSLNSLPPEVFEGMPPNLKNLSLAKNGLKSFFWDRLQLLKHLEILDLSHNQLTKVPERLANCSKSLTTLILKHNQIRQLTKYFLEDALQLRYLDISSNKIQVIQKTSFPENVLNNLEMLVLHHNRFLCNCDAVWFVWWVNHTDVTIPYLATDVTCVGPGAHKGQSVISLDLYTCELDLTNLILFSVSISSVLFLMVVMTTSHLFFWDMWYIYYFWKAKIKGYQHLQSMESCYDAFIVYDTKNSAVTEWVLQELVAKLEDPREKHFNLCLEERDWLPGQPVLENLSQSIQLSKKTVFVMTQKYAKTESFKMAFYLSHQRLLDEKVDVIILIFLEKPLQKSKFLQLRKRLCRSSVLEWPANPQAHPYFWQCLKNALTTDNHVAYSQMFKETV
The experiment in a line: In vitro cytokine induction in murine macrophages (RAW264.7, BMDM), ELISA. The assay is classed as cell-based. Details: endogenous in cells; host or cells: RAW264.7 (ATCC); primary BMDM from C57BL/6 mice. The conditions noted are these: for potency compared to the unconjugated TLR7 (SM): ELISA; for potency of cytokine induction in comparison to the unmodified TLR7 agonist: in vitro and in vivo. How it is done: (§1) In vitro measurements of cytokine induction were performed using the mouse leukemic monocyte macrophage cell line, RAW264.7. […] BMDM were prepared from C57BL/6 and TLR7 deficient mice as described in Wu, C. C et al., (2007) “Immunotherapeutic activity of a conjugate of a Toll-like receptor 7 ligand”, Proc Natl Acad Sci USA 104, 3990-5.
(§2) In general, RAW264.7 cells or BMDM were incubated with various concentrations of conjugates for 18 hours at 37° C., 5% CO2 and culture supernatants were collected. The levels of cytokines (IL-6, IL-12 or TNF-α in the supernatants were determined by ELISA (BD Biosciences Pharmingen, La Jolla, Calif.) (Cho, H. J et al., “Immunostimulatory DNA-based vaccines induce cytotoxic lymphocyte activity by a T-helper cell-independent mechanism” [see comments], Nat Biotechnol 18, 509-14 (2000)), and the results presented in FIG. 2A-D. Data are mean±SEM of triplicates and are representative of three independent experiments. Minimum detection levels of these cytokines were 15 pg/mL.
TNFα levels were measured (see FIG. 2A) by incubating approximately 1×10^6/mL RAW 264.7 cells with the various conjugates or controls, as described above. IL-6 and IL12 levels were measured (see FIG. 2B-D) by incubating 0.5×10^6/mL BMDM with the various conjugates or controls, as described above.
Using a similar assay, the in vitro potency of the lipid-TLR agonist conjugates (FIG. 1, compound 6), PEG-TLR7 agonist conjugates (FIG. 1, compound 8), and PEG-lipid (FIG. 1, compound 9) conjugates were compared using a murine macrophage cell line, RAW264, and primary bone marrow derived macrophages (BMDM). The respective cells were stimulated for 18 hours with serially diluted TLR7 conjugates and the levels of cytokines released in the media were measured by ELISA and compared to the unconjugated TLR7 agonist (SM) (see FIG. 2A, panels A-D).
Background: An ELISA detects its analyte on a solid surface through an enzyme-linked reagent.

In assay [2] the target is T1, TLR7. Nature of the assay: Cytokine induction in BMDM from wild type and TLR7 deficient mice. Type of assay: cell-based. Details: endogenous in cells; host or cells: primary BMDM from C57BL/6 mice. The settings on record: wild type BMDM. As for the experimental part: as §1, §2

As to `CCCCCCCC/C=C\CCCCCCCC(=O)OCC(COP(=O)(O)OCCNC(=O)c1ccc(Cn2c(=O)[nH]c3c(N)nc(OCCOC)nc32)cc1)OC(=O)CCCCCCC/C=C\CCCCCCCC` (centres unmarked) [Compound 6, 2-(4-((6-amino-2-(2-methoxyethoxy)-8-oxo-7H-purin-9(8H)-yl)methyl)benzamido)ethyl 2,3-bis(oleoyloxy)propyl phosphate], at TLR7 [1] (normalized to the molar level of the unconjugated agonist, RAW264, BMDM, 18 hours), the “potency as a cytokine inducer compared to the unconjugated agonist” value is on record as 10 fold. The “agonist activity (IL-12, IL-6)” value at TLR7 [2] was “active”.

Consider `COCCOc1nc(N)c2nc(O)n(Cc3ccc(C(=O)NCCOCCOCCOCCOCCOCCOCCOCCOCCOCCOCCn4cc(CCC(=O)O)nn4)cc3)c2n1` [Compound 8, 3-(1-(1-(4-((6-amino-8-hydroxy-2-(2-methoxyethoxy)-9H-purin-9-yl)methyl)phenyl)-1-oxo-5,8,11,14,17,20,23,26,29,32-decaoxa-2-azatetratriacontan-34-yl)-1H-1,2,3-triazol-4-yl)propanoic acid], for which the “potency compared to the unconjugated TLR7 (SM)” value on TLR7 [1] (RAW264, BMDM, 18 hours) was “less potency”. For the same molecule, the “potency of cytokine induction in comparison to the unmodified TLR7 agonist” value at TLR7 [1] was “attenuated”. Besides, the “agonist activity (IL-12, IL-6)” value at TLR7 [2] is “active”.

For `CCCCCCCC/C=C\CCCCCCCC(=O)OCC(COP(=O)(O)OCCNC(=O)CCc1cn(CCOCCOCCOCCOCCOCCOCCOCCOCCOCCOCCNC(=O)c2ccc(Cn3c(O)nc4c(N)nc(OCCOC)nc43)cc2)nn1)OC(=O)CCCCCCC/C=C\CCCCCCCC` (centres unmarked) [Compound 9, 2-(3-(1-(1-(4-((6-amino-8-hydroxy-2-(2-methoxyethoxy)-9H-purin-9-yl)methyl)phenyl)-1-oxo-5,8,11,14,17,20,23,26,29,32-decaoxa-2-azatetratriacontan-34-yl)-1H-1,2,3-triazole-4-yl)propanamido)ethyl 2,3-bis(oleoyloxy)propyl phosphate], on TLR7 [1] (RAW264, BMDM, 18 hours), the “potency compared to the unconjugated TLR7 (SM)” value is reported as “restored their potency to the similar level of the unconjugated TLR7 (SM)”. Moreover, the “potency of cytokine induction in comparison to the unmodified TLR7 agonist” value on TLR7 [1] was “restored”. For the same molecule, the “agonist activity (IL-12, IL-6)” value on TLR7 [2] is recorded as “active”.
